The subject of assay [1] is phosphorylation of ERK, KRAS G12V in SW620. Kind of assay: pERK inhibition assay. It is filed as cell-based. The settings on record: Homo sapiens, SW-620, 4 h, SW620 cells. The gist of the method: (§1)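 Cells in RPMI-1640 with 10% FBS were plated overnight (30,000/well H358, 20,000 AGS, 30,000 SW620) and treated 4 h with compounds at 0.5% DMSO. After formaldehyde fixation and methanol permeabilization, pERK was detected by in-cell ELISA with HRP secondary and TMB (OD450); IC50 from 4-parameter fit.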

Assay [2] deals with phosphorylation of ERK, KRAS G12C in NCI-H358 cells. Kind of assay: pERK inhibition assay. Type of assay: cell-based. The settings on record: Homo sapiens, NCI-H358, 4 h. The gist of the method:
as §1

Assay [3] relates to phosphorylation of ERK, KRAS G12D in AGS cells. Kind of assay: pERK inhibition assay. The settings on record: Homo sapiens, AGS, 4 h. It is filed as cell-based. The gist of the method:
as §1

In assay [4] the test system is NCI-H358 cells (KRAS G12C). The experiment in a line: Cell viability assay (Cell Counting Kit-8, 3-day). Particulars: Homo sapiens, NCI-H358, 72 h, NCI-H358, 72 hrs incubation. Type of assay: cell-based, human. An outline of the steps: (§2)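 Cells seeded at 5,000/well (NCI-H358) or 2,000/well (AGS, SW620), treated next day at 0.5% final DMSO for 72 h. Viability read by CCK-8 (OD450 minus OD650) after 2 h; IC50 from 4-parameter sigmoidal fit.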
Background: Tetrazolium assays rely on reduction of a dye to a coloured formazan, in cell work by metabolically active cells.

Another assay relates to AGS cells (KRAS G12D). The experiment in a line: Cell viability assay (Cell Counting Kit-8, 3-day). It is filed as cell-based, human. Particulars: Homo sapiens, 72 h, 72 hrs incubation. The gist of the method: as §2
Another assay deals with SW620 cells (KRAS G12V). The experiment in a line: Cell viability assay (Cell Counting Kit-8, 3-day). Type of assay: cell-based, human. The settings on record: Homo sapiens, SW-620; SW620, 72 hrs incubation. The gist of the method: as §2
The next assay has as its target KRAS G12C-BRAF complex (Homo sapiens (Human), UniProt P01116+P62937, G12C). Kind of assay: KRAS-BRAF with CYPA (500 nM) interaction assay (TR-FRET, Example 136). It is filed as biochemical. Particulars: KRAS G12C-BRAF disruption. (In TR-FRET formats the signal depends on donor and acceptor labels being close together.)

Usually IC50 stands for the concentration that gives 50% inhibition. Read a high IC50 as weaker potency in that assay.

Sequence of KRAS G12C-BRAF complex (P01116-2 other isoform, or with tags, fused parts or gaps G12C): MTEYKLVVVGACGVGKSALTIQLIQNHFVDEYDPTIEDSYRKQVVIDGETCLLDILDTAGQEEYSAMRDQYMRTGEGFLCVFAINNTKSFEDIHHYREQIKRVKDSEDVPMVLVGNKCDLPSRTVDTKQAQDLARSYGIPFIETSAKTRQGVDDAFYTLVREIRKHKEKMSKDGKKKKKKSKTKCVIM
Sequence of KRAS G12C-BRAF complex (P62937 whole entry): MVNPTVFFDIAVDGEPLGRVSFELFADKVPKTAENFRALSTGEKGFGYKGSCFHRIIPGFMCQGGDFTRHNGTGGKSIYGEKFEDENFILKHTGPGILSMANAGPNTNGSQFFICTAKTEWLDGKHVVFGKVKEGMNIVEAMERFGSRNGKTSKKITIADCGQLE

As to `CO[C@@H](C)c1ncc(N2CCN(CCCO)CC2)cc1-c1c2c3cc(cc4c3n1CCC4)-c1csc(n1)C[C@H](NC(=O)[C@H]1[C@H](C)[C@@H]1C)C(=O)N1CCC[C@H](N1)C(=O)OCC(C)(C)C2` (atropisomer, axis not shown; (M)) [Example 111, (1r,2R,3S)-N-[(7S,13S)-(20M)-20-[5-[4-(3-hydroxypropyl)piperazin-1-yl]-2-[(1S)-1-methoxyethyl]-3-pyridyl]-17,17-dimethyl-8,14-dioxo-15-oxa-4-thia-9,21,30,31-tetrazahexacyclo[23.3.1.1^2,5.1^9,13.0^19,27.0^21,26]hentriaconta-1 (28),2,5 (31), 19,25 (29),26-hexaen-7-yl]-2,3-dimethyl-cyclopropanecarboxamide], the half-inhibitory concentration (IC50) was 0.4 nM in assay [1]; 0.6 nM in assay [2]; 2 nM in assay [3]; 1 nM in assay [4]; 0.8 nM in the assay on AGS cells (KRAS G12D); 0.2 nM with SW620 cells (KRAS G12V). On KRAS G12C-BRAF complex, this compound registered an IC50 of 4.7 nM.
As for `CO[C@@H](C)c1ncc(N2CCN(C)CC2)cc1-c1c2c3cc(cc4c3n1CCC4)-c1csc(n1)C[C@H](NC(=O)[C@@H]1C[C@H]1c1cncnc1C)C(=O)N1CCC[C@H](N1)C(=O)OCC(C)(C)C2` (atropisomer, axis not shown; (M)) [Example 112, (1R,2R)-N-[(7S,13S)-(20M)-20-[2-[(1S)-1-methoxyethyl]-5-(4-methylpiperazin-1-yl)-3-pyridyl]-17,17-dimethyl-8,14-dioxo-15-oxa-4-thia-9,21,30,31-tetrazahexacyclo[23.3.1.1^2,5.1^9,13.0^19,27.0^21,26]hentriaconta-1 (28),2,5 (31), 19,25 (29),26-hexaen-7-yl]-2-(4-methylpyrimidin-5-yl)cyclopropanecarboxamide], the IC50 in assay [1] is 0.5 nM; in assay [2], 0.7 nM; in assay [3], 3.4 nM; in assay [4] it was 2.2 nM; in the assay with AGS cells (KRAS G12D), 3.4 nM; with SW620 cells (KRAS G12V) it was 0.8 nM. The compound further had an IC50 against KRAS G12C-BRAF complex of 10.4 nM.
Turning to `CCN1CCN(c2cnc([C@H](C)OC)c(-c3c4c5cc(cc6c5n3CCC6)-c3csc(n3)C[C@H](NC(=O)[C@H]3[C@H](C)[C@@H]3C)C(=O)N3CCC[C@H](N3)C(=O)OCC(C)(C)C4)c2)CC1` (atropisomer, axis not shown; (M)) [Example 113, (1r,2R,3S)-N-[(7S,13S)-(20M)-20-[5-(4-ethylpiperazin-1-yl)-2-[(1S)-1-methoxyethyl]-3-pyridyl]-17,17-dimethyl-8,14-dioxo-15-oxa-4-thia-9,21,30,31-tetrazahexacyclo[23.3.1.1^2,5.1^9,13.0^19,27.0^21,26]hentriaconta-1 (28),2,5 (31), 19,25 (29),26-hexaen-7-yl]-2,3-dimethyl-cyclopropanecarboxamide], the IC50 in assay [1] worked out at 0.4 nM; in assay [2], 0.6 nM; in assay [3] it was 2.2 nM; in assay [4] it was 2.1 nM; in the assay with AGS cells (KRAS G12D) it was 1.5 nM; with SW620 cells (KRAS G12V), 0.3 nM. Besides, it took 4.3 nM to reach half-maximal inhibition against KRAS G12C-BRAF complex (IC50).
Turning to `CO[C@@H](C)c1ncc(N2CCN(C)CC2)cc1-c1c2c3cc(cc4c3n1CCC4)-c1csc(n1)C[C@H](NC(=O)[C@@H]1C[C@H]1c1cscn1)C(=O)N1CCC[C@H](N1)C(=O)OCC(C)(C)C2` (atropisomer, axis not shown; (M)) [Example 114, (1R,2R)-N-[(7S,13S)-(20M)-20-[2-[(1S)-1-methoxyethyl]-5-(4-methylpiperazin-1-yl)-3-pyridyl]-17,17-dimethyl-8,14-dioxo-15-oxa-4-thia-9,21,30,31-tetrazahexacyclo[23.3.1.1^2,5.1^9,13.0^19,27.0^21,26]hentriaconta-1 (28),2,5 (31), 19,25 (29),26-hexaen-7-yl]-2-thiazol-4-yl-cyclopropanecarboxamide], the IC50 in assay [1] turned out to be 1 nM; in assay [2] it was 1.2 nM; in assay [3], 7.5 nM; in assay [4], 4.5 nM; with AGS cells (KRAS G12D), 5.1 nM; with SW620 cells (KRAS G12V), 1.3 nM. On KRAS G12C-BRAF complex, this compound returned an IC50 of 8.9 nM.
For the compound `COCCN1CCN(c2cnc([C@H](C)OC)c(-c3c4c5cc(cc6c5n3CCC6)-c3csc(n3)C[C@H](NC(=O)[C@H]3[C@H](C)[C@@H]3C)C(=O)N3CCC[C@H](N3)C(=O)OCC(C)(C)C4)c2)CC1` (atropisomer, axis not shown; (M)) [Example 115, (1r,2S,3R)-N-[(7S,13S)-(20M)-20-[2-[(1S)-1-methoxyethyl]-5-[4-(2-methoxyethyl)piperazin-1-yl]-3-pyridyl]-17,17-dimethyl-8,14-dioxo-15-oxa-4-thia-9,21,30,31-tetrazahexacyclo[23.3.1.1^2,5.1^9,13.0^19,27.0^21,26]hentriaconta-1 (28),2,5 (31), 19,25 (29),26-hexaen-7-yl]-2,3-dimethyl-cyclopropanecarboxamide], the IC50 came to 0.2 nM in assay [1]; 0.8 nM in assay [2]; 2.6 nM in assay [3]; 1.7 nM in assay [4]; 3.4 nM with AGS cells (KRAS G12D); 0.4 nM with SW620 cells (KRAS G12V). Moreover, it took 18.5 nM to reach half-maximal inhibition on KRAS G12C-BRAF complex (IC50).
For `CO[C@@H](C)c1ncc(N2CCN(C)CC2)cc1-c1c2c3cc(cc4c3n1CCC4)-c1csc(n1)C[C@H](NC(=O)[C@@H]1C[C@H]1c1cccnc1C)C(=O)N1CCC[C@H](N1)C(=O)OCC(C)(C)C2` (atropisomer, axis not shown; (M)) [Example 116, (1R,2R)-N-[(7S,13S)-(20M)-20-[2-[(1S)-1-methoxyethyl]-5-(4-methylpiperazin-1-yl)-3-pyridyl]-17,17-dimethyl-8,14-dioxo-15-oxa-4-thia-9,21,30,31-tetrazahexacyclo[23.3.1.1^2,5.1^9,13.0^19,27.0^21,26]hentriaconta-1 (28),2,5 (31), 19,25 (29),26-hexaen-7-yl]-2-(2-methyl-3-pyridyl)cyclopropanecarboxamide], the IC50 in assay [1] was 0.7 nM; in assay [2], 0.8 nM; in assay [3] it was 4.6 nM; in assay [4] it was 1.4 nM; in the assay on AGS cells (KRAS G12D), 3.5 nM; in the assay on SW620 cells (KRAS G12V), 0.5 nM. Also, the IC50 at KRAS G12C-BRAF complex is 20.6 nM.
Consider `CO[C@@H](C)c1ncc(N2CCN(C3CCOCC3)CC2)cc1-c1c2c3cc(cc4c3n1CCC4)-c1csc(n1)C[C@H](NC(=O)[C@H]1[C@H](C)[C@@H]1C)C(=O)N1CCC[C@H](N1)C(=O)OCC(C)(C)C2` (atropisomer, axis not shown; (M)) [Example 117, (1r,2R,3S)-N-[(7S,13S)-(20M)-20-[2-[(1S)-1-methoxyethyl]-5-(4-tetrahydropyran-4-ylpiperazin-1-yl)-3-pyridyl]-17,17-dimethyl-8,14-dioxo-15-oxa-4-thia-9,21,30,31-tetrazahexacyclo[23.3.1.1^2,5.1^9,13.0^19,27.0^21,26]hentriaconta-1 (28),2,5 (31), 19,25 (29),26-hexaen-7-yl]-2,3-dimethyl-cyclopropanecarboxamide], for which the concentration for half-maximal inhibition (IC50) in assay [1] turned out to be 0.3 nM; in assay [2], 0.7 nM; in assay [3], 4.1 nM; in assay [4] it was 1.5 nM; in the assay with AGS cells (KRAS G12D) it was 2.5 nM; in the assay on SW620 cells (KRAS G12V), 0.2 nM. At KRAS G12C-BRAF complex, this compound came in with an IC50 of 15.9 nM.
On to `CO[C@@H](C)c1ncc(N2CCN(C3COC3)CC2)cc1-c1c2c3cc(cc4c3n1CCC4)-c1csc(n1)C[C@H](NC(=O)[C@H]1[C@H](C)[C@@H]1C)C(=O)N1CCC[C@H](N1)C(=O)OCC(C)(C)C2` (atropisomer, axis not shown; (M)) [Example 118, (1r,2R,3S)-N-[(7S,13S)-(20M)-20-[2-[(1S)-1-methoxyethyl]-5-[4-(oxetan-3-yl)piperazin-1-yl]-3-pyridyl]-17,17-dimethyl-8,14-dioxo-15-oxa-4-thia-9,21,30,31-tetrazahexacyclo[23.3.1.1^2,5.1^9,13.0^19,27.0^21,26]hentriaconta-1 (28),2,5 (31), 19,25 (29),26-hexaen-7-yl]-2,3-dimethyl-cyclopropanecarboxamide], for which the IC50 in assay [1] amounted to 0.3 nM; in assay [2], 0.7 nM; in assay [3], 3.5 nM; in assay [4] it was 1.1 nM; in the assay on AGS cells (KRAS G12D), 1.3 nM; in the assay on SW620 cells (KRAS G12V), 0.2 nM. The same compound came in with an IC50 at KRAS G12C-BRAF complex of 13.5 nM.
With `CO[C@@H](C)c1ncc(N2CCN(C[C@@H]3CNCCO3)CC2)cc1-c1c2c3cc(cc4c3n1CCC4)-c1csc(n1)C[C@H](NC(=O)[C@H]1[C@H](C)[C@@H]1C)C(=O)N1CCC[C@H](N1)C(=O)OCC(C)(C)C2` (atropisomer, axis not shown; (M)) [Example 119, (1r,2S,3R)-N-[(7S,13S)-(20M)-20-[2-[(1S)-1-methoxyethyl]-5-[4-[[(2S)-morpholin-2-yl]methyl]piperazin-1-yl]-3-pyridyl]-17,17-dimethyl-8,14-dioxo-15-oxa-4-thia-9,21,30,31-tetrazahexacyclo[23.3.1.1^2,5.1^9,13.0^19,27.0^21,26]hentriaconta-1 (28),2,5 (31),19,25 (29),26-hexaen-7-yl]-2,3-dimethyl-cyclopropanecarboxamide], the IC50 amounted to 1.2 nM in assay [1]; 1.7 nM in assay [2]; 6.9 nM in assay [3]; 3.5 nM in assay [4]; 4.4 nM in the assay on AGS cells (KRAS G12D); 0.8 nM with SW620 cells (KRAS G12V). Half-maximal inhibition against KRAS G12C-BRAF complex (IC50) was put at 9.3 nM.
